Source: US20240252527A9, “NUCLEOSIDE DRUGS FOR THE TREATMENT OR PREVENTION OF CORONAVIRUS INFECTION AND THEIR USES” (Miracure Biotechnology Limited, priority 2022, published 2024)
Where two headings read alike, the source gives them in different places.

Assays:
229E = 229E MRC5 CPE assay (cytopathic experiment); type: cell-based, coronavirus 229E (HCoV-229E)
OC43 = OC43 Huh7 CPE assay (cytopathic experiment); type: cell-based, coronavirus OC43 (HCoV-OC43); settings: Betacoronavirus 1, OC43, Huh-7, 168 h; for EC50: read-out: OC43 Huh7 CPE assay (μM) EC50; for EC90: read-out: OC43 Huh7 CPE assay (μM) EC90
In short: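 Cells seeded overnight, then two-fold diluted compound added with virus; viability read by CellTiter-Glo after 3 days (229E, MRC5 cells) or 7 days (OC43, Huh7 cells). EC50/EC90 from % inhibition of virus-induced CPE; CC50 from parallel uninfected cytotoxicity runs, by nonlinear fitting.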

[1] = Human coronavirus 229E, MRC5, 72 h, read-out: 229E MRC5 CPE assay (μM) EC50
[2] = Human coronavirus 229E, MRC5, 72 h, read-out: 229E MRC5 CPE assay (μM) EC90
[3] = Human coronavirus 229E, MRC5, 72 h; read-out: 229E MRC5 CPE assay (μM) EC50
[4] = Human coronavirus 229E, MRC5, 72 h; read-out: 229E MRC5 CPE assay (μM) EC90

Compound	EC50 (229E; [1])	EC90 (229E; [2])	EC50 (OC43)	EC90 (OC43)	EC50 (229E; [3])	EC90 (229E; [4])
CCCN(CCC)S(=O)(=O)c1ccc(C(=O)OCO[P@](=O)(N[C@@H](C)C(=O)OCC(CC)CC)OC[C@H]2O[C@@](C#N)(c3ccc4c(N)ncnn34)[C@H](O)[C@@H]2O)cc1 [Compound 160]	> 0.5 µM	> 0.5 µM	> 0.5 µM	> 0.5 µM	–	–
CCCN(CCC)S(=O)(=O)c1ccc(C(=O)OCO[P@@](=O)(N[C@@H](C)C(=O)OCC(CC)CC)OC[C@H]2O[C@@](C#N)(c3ccc4c(N)ncnn34)[C@H](O)[C@@H]2O)cc1 [Compound 161]	> 0.5 µM	> 0.5 µM	> 0.5 µM	> 0.5 µM	–	–
CCCN(CCC)S(=O)(=O)c1ccc(C(=O)OCO[P@@](=O)(NC(C)(C)C(=O)OC(C)C)OC[C@H]2O[C@@](C#N)(c3ccc4c(N)ncnn34)[C@H](O)[C@@H]2O)cc1 [Compound 162]	> 0.5 µM	> 0.5 µM	> 0.5 µM	> 0.5 µM	–	–
CCCN(CCC)S(=O)(=O)c1ccc(C(=O)OCOP(=O)(NC(C)(C)C(=O)OC(C)C)OC[C@H]2O[C@@](C#N)(c3ccc4c(N)ncnn34)[C@H](O)[C@@H]2O)cc1 (stereo partly drawn) [Compound 163]	> 0.5 µM	> 0.5 µM	> 0.5 µM	> 0.5 µM	–	–
CCCN(CCC)S(=O)(=O)c1ccc(C(=O)OCOP(=O)(OCOC(=O)c2ccc(S(=O)(=O)N(CCC)CCC)cc2)OC[C@H]2O[C@@](C#N)(c3ccc4c(N)ncnn34)[C@H](O)[C@@H]2O)cc1 [Compound 164]	> 0.5 µM	> 0.5 µM	> 0.5 µM	> 0.5 µM	–	–
CCC(CC)COC(=O)[C@H](C)N[P@@](=O)(OCOC(=O)c1cccnc1)OC[C@H]1O[C@@](C#N)(c2ccc3c(N)ncnn23)[C@H](O)[C@@H]1O [Compound 174]	> 0.5 µM	> 0.5 µM	> 0.5 µM	> 0.5 µM	–	–
CCC(CC)COC(=O)[C@H](C)NP(=O)(OCOC(=O)c1cccnc1)OC[C@H]1O[C@@](C#N)(c2ccc3c(N)ncnn23)[C@H](O)[C@@H]1O (stereo partly drawn) [Compound 175]	> 0.5 µM	> 0.5 µM	> 0.5 µM	> 0.5 µM	–	–
CC(C)OC(=O)C(C)(C)N[P@](=O)(OCOC(=O)c1cccnc1)OC[C@H]1O[C@@](C#N)(c2ccc3c(N)ncnn23)[C@H](O)[C@@H]1O [Compound 176]	> 0.5 µM	> 0.5 µM	> 0.5 µM	> 0.5 µM	–	–
CC(C)OC(=O)C(C)(C)NP(=O)(OCOC(=O)c1cccnc1)OC[C@H]1O[C@@](C#N)(c2ccc3c(N)ncnn23)[C@H](O)[C@@H]1O (stereo partly drawn) [Compound 177]	> 0.5 µM	> 0.5 µM	> 0.5 µM	> 0.5 µM	–	–
N#C[C@@]1(c2ccc3c(N)ncnn23)OC2CO[P@](=O)(OCOC(=O)c3cccnc3)O[C@H]2[C@H]1O (stereo partly drawn) [Compound 179]	> 0.5 µM	> 0.5 µM	> 0.5 µM	> 0.5 µM	–	–
N#C[C@@]1(c2ccc3c(N)ncnn23)OC2CO[P@@](=O)(OCOC(=O)c3cccnc3)O[C@H]2[C@H]1O (stereo partly drawn) [Compound 180]	> 0.5 µM	> 0.5 µM	> 0.5 µM	> 0.5 µM	–	–
N#C[C@@]1(c2ccc3c(N)ncnn23)O[C@@H]2COP(=O)(O)O[C@H]2[C@H]1OC(=O)c1cccnc1 [Compound 181]	> 0.5 µM	> 0.5 µM	> 0.5 µM	> 0.5 µM	–	–
CCC(CC)COC(=O)[C@H](C)N[P@@](=O)(OCOC(=O)C(C)(C)C)OC[C@H]1O[C@@](C#N)(c2ccc3c(N)ncnn23)[C@H](O)[C@@H]1O [Compound 192]	0.1 to 0.5 µM	> 0.5 µM	0.1 to 0.5 µM	> 0.5 µM	–	–
CCC(CC)COC(=O)[C@H](C)NP(=O)(OCOC(=O)C(C)(C)C)OC[C@H]1O[C@@](C#N)(c2ccc3c(N)ncnn23)[C@H](O)[C@@H]1O (stereo partly drawn) [Compound 193]	0.1 to 0.5 µM	> 0.5 µM	0.1 to 0.5 µM	> 0.5 µM	–	–
CC(C)OC(=O)C(C)(C)N[P@](=O)(OCOC(=O)C(C)(C)C)OC[C@H]1O[C@@](C#N)(c2ccc3c(N)ncnn23)[C@H](O)[C@@H]1O [Compound 194]	0.1 to 0.5 µM	> 0.5 µM	0.1 to 0.5 µM	> 0.5 µM	–	–
CC(C)OC(=O)C(C)(C)NP(=O)(OCOC(=O)C(C)(C)C)OC[C@H]1O[C@@](C#N)(c2ccc3c(N)ncnn23)[C@H](O)[C@@H]1O (stereo partly drawn) [Compound 195]	0.1 to 0.5 µM	> 0.5 µM	0.1 to 0.5 µM	> 0.5 µM	–	–
CC(C)(C)C(=O)OCOP(=O)(OCOC(=O)C(C)(C)C)OC[C@H]1O[C@@](C#N)(c2ccc3c(N)ncnn23)[C@H](O)[C@@H]1O [Compound 196]	0.1 to 0.5 µM	> 0.5 µM	0.1 to 0.5 µM	> 0.5 µM	–	–
CC(C)(C)C(=O)OCO[P@@]1(=O)OCC2O[C@@](C#N)(c3ccc4c(N)ncnn34)[C@H](O)[C@@H]2O1 (stereo partly drawn) [Compound 197]	0.1 to 0.5 µM	> 0.5 µM	> 0.5 µM	> 0.5 µM	–	–
CC(C)(C)C(=O)OCO[P@]1(=O)OCC2O[C@@](C#N)(c3ccc4c(N)ncnn34)[C@H](O)[C@@H]2O1 (stereo partly drawn) [Compound 198]	0.1 to 0.5 µM	> 0.5 µM	> 0.5 µM	> 0.5 µM	–	–
CC(C)(C)C(=O)O[C@@H]1[C@@H]2O[P@@](=O)(O)OC[C@H]2O[C@@]1(C#N)c1ccc2c(N)ncnn12 [Compound 199]	> 0.5 µM	> 0.5 µM	> 0.5 µM	> 0.5 µM	–	–
CC(C)(C)C(=O)O[C@@H]1[C@@H]2O[P@](=O)(O)OC[C@H]2O[C@@]1(C#N)c1ccc2c(N)ncnn12 [Compound 200]	> 0.5 µM	> 0.5 µM	> 0.5 µM	> 0.5 µM	–	–
[2H]c1cc([C@]2(C#N)O[C@@H]3CO[P@](=O)(O)O[C@H]3[C@H]2OC(=O)C(CCC)CCC)n2ncnc(N)c12 [Compound 208]	> 0.5 µM	> 0.5 µM	0.1 to 0.5 µM	0.1 to 0.5 µM	–	–
[2H]c1cc([C@]2(C#N)O[C@@H]3CO[P@@](=O)(O)O[C@H]3[C@H]2OC(=O)C(CCC)CCC)n2ncnc(N)c12 [Compound 209]	> 0.5 µM	> 0.5 µM	> 0.5 µM	0.1 to 0.5 µM	–	–
[2H]c1cc([C@]2(C#N)O[C@@H]3CO[P@](=O)(OCOC(=O)C(CCC)CCC)O[C@H]3[C@H]2O)n2ncnc(N)c12 [Compound 210]	< 0.1 µM	< 0.1 µM	< 0.1 µM	0.1 to 0.5 µM	–	–
[2H]c1cc([C@]2(C#N)O[C@@H]3CO[P@@](=O)(OCOC(=O)C(CCC)CCC)O[C@H]3[C@H]2O)n2ncnc(N)c12 [Compound 211]	< 0.1 µM	< 0.1 µM	0.1 to 0.5 µM	> 0.5 µM	–	–
[2H]c1cc([C@]2(C#N)O[C@H](COP(=O)(OCOC(=O)C(CCC)CCC)OCOC(=O)C(CCC)CCC)[C@@H](O)[C@H]2O)n2ncnc(N)c12 [Compound 212]	0.1 to 0.5 µM	> 0.5 µM	0.1 to 0.5 µM	> 0.5 µM	–	–
CC(C)(C)C(=O)OCO[P@@](=O)(OC[C@H]1O[C@@](C#N)(c2ccc3c(N)ncnn23)[C@H](O)[C@@H]1O)Oc1ccccc1 [Compound 214]	–	–	> 0.5 µM	> 0.5 µM	> 0.5 µM	> 0.5 µM
CC(C)(C)C(=O)OCO[P@](=O)(OC[C@H]1O[C@@](C#N)(c2ccc3c(N)ncnn23)[C@H](O)[C@@H]1O)Oc1ccccc1 [Compound 215]	–	–	> 0.5 µM	> 0.5 µM	> 0.5 µM	> 0.5 µM
CC(C)(C)C(=O)OCO[P@@](=O)(OC[C@H]1O[C@@](C#N)(c2ccc3c(N)ncnn23)[C@H](O)[C@@H]1O)Oc1cccc2ccccc12 [Compound 216]	–	–	> 0.5 µM	> 0.5 µM	> 0.5 µM	> 0.5 µM
CC(C)(C)C(=O)OCO[P@](=O)(OC[C@H]1O[C@@](C#N)(c2ccc3c(N)ncnn23)[C@H](O)[C@@H]1O)Oc1cccc2ccccc12 [Compound 217]	–	–	> 0.5 µM	> 0.5 µM	> 0.5 µM	> 0.5 µM
